The values that follow come from US20090298811A1, “BENZIMIDAZOLONE DERIVATIVES” (Pfizer Inc, priority 2006, published 2009).

For orientation: melting point means the temperature of the solid-liquid transition. Broadly, the Ki is the equilibrium dissociation constant of an inhibitor or competing ligand from its target. Broadly, the EC50 is the midpoint of the concentration-response curve.

In data set [1] the target is T1, human CB1 receptor (Homo sapiens, UniProt P21554). Nature of the data set: Human CB1 receptor binding, [3H] CP-55,940 displacement on HEK cell membranes. To be noted: [3H] CP-55,940 500 pM. Set-up: expressed in transfected cells; membranes. How it is done: The Human CB1 receptor binding affinity and other biological activities of the compounds of this invention are determined by the following procedures.
Membrane preparation: Human Embryonic Kidney (HEK) Cells expressing the human CB1 receptor under transcriptional regulation of a tetracycline inducible promoter were grown in Dulbecco's Modified Essential Medium with sodium pyruvate (Invitrogen, Carlsbad, Calif.) containing 10% tetracycline free fetal bovine serum (Clonetech, Mountain View, Calif.) 100 μg/ml hygromycin (Calbiochem, San Diego, Calif.), 5 μg/ml blasticidin (Invitrogen). CB1 receptor expression was induced by addition of 1 μg/ml doxycycline (Calbiochem) and incubation for an additional 24 hours. Cells were released from flasks using Cell Dissociation Buffer (Invitrogen). Cells were pelleted by centrifugation at 500×G for 5 minutes. Membranes were prepared by resuspending cells in ice cold TEE Buffer (25 mM Tris pH 7.4, 5 mM EDTA, 5 mM EGTA, Complete Protease Inhibitor (Roche, Basel, Switzerland)). Cells were lysed with 12 strokes of a dounce homogenizer. Unlysed cells were pelleted by centrifugation at 500×G for 5 minutes. Membranes were pelleted by centrifugation at 25,000×G for 30 minutes. Membranes were resuspended in TEE, dounced 12 strokes, and pelleted a second time at 25,000×G for 30 minutes. Membrane pellet was resuspended in 50 mM Tris pH 7.4, 100 mM NaCl, 3 mM MgCl2, 0.2 mM EGTA, Complete Protease Inhibitor (Roche). Protein concentration was determined using the Micro-BCA Protein Assay Kit (Pierce, Rockford, Ill.) using BSA as a standard. Membranes were quick frozen and stored at −80 degrees Celsius until use. Binding experiments: 50 μl of test compound was incubated with 50 μl, of [^3H] CP-55,940 (Perkin Elmer, Boston, Mass.) (final concentration 500 pM) and 150 μl of membrane homogenate (1 μg/well) in polypropylene 96-well plates (Corning, Acton, Mass.). Final reaction conditions were 50 mM Tris pH 7.4, 100 mM NaCl, 3 mM MgCl2, 0.2 mM EGTA, 0.04% BSA. Nonspecific binding was determined by incubation with 50 μM WIN-55,212-2 (Tocris, Ellisville, Mo.). After incubation at room temperature for 60 minutes reactions were harvested by vacuum filtration through Unifilter GF/B-96 filters (Perkin Elmer) that had been presoaked in assay buffer containing 0.5% BSA (Sigma, St. Louis, Mo.) using a FilterMate Plate Harvester (Perkin Elmer). Filters were rinsed 4 times with 50 mM Tris pH 7.4, 0.025% Tween20 and dried at 50 degrees Celsius for at least 30 minutes. 40 μl of Microscint-20 (Perkin Elmer) was added per well, and plates were counted using a Top-Count Microplate Scintillation Counter (Perkin Elmer). Binding data were analyzed and EC50 and Ki values calculated using Graph Pad Prism 4.0 Software.

The target of data set [2] is T1, human CB1 receptor. Nature of the data set: GTPγS binding on membranes of CHO cells expressing the human CB1 receptor. The data set is classed as biochemical. Details: expressed in transfected cells; host or cells: CHO cells (G418 selection); membranes. The note with it: CHO cell membranes, [35S] GTPγS. How it is done: Membrane preparation: CHO cells expressing the human CB1 receptor were grown to 80% confluence in Ham's F-12 Nutrient Medium (Invitrogen) containing 10% fetal bovine serum (Invitrogen), 1% pen/strep (Invitrogen), 1% Nonessential amino acids (Invitrogen) and 500 μg/ml G418 (Invitrogen). Cells were released from flasks using Cell Dissociation Buffer (Invitrogen). Cells were pelleted by centrifugation at 500×G for 5 minutes. Membranes were prepared by resuspending cells in ice cold Assay Buffer (25 mM Tris pH 7.4, 5 mM EDTA, 5 mM EGTA, Complete Protease Inhibitor (Roche)). Cells were lysed with 12 strokes of a dounce homogenizer. Unlysed cells were pelleted by centrifugation at 500×G for 5 minutes. Membranes were pelleted by centrifugation at 25,000×G for 30 minutes. Membranes were resuspended in TEE, dounced 12 strokes, and pelleted a second time at 25,000×G for 30 minutes. Membrane pellet was resuspended in 50 mM Tris pH 7.4, 100 mM NaCl, 3 mM MgCl2, 0.2 mM EGTA, Complete Protease Inhibitor (Roche). Protein concentration was determined using the Micro-BCA Protein Assay Kit (Pierce) using BSA as a standard. Membranes were frozen and stored at −80 degrees Celsius until use. GTPγS Binding: 40 μl of test compound was incubated with 20 μl of [^35S] GTPγS (Perkin Elmer) (1250 Ci/millimole) and 140 μl of membrane homogenate (5 ug/well) in polypropylene 96-well plates (Corning). Final reaction conditions were 50 mM Tris pH 7.4, 100 mM NaCl, 3 mM […], 0.2 mM EGTA, 0.04% BSA. After incubation at 37 degrees Celsius for 45 minutes reactions were harvested by vacuum filtration through Unifilter GF/B-96 filters (Perkin Elmer) using a FilterMate Plate Harvester (Perkin Elmer). Filters were rinsed 4 times with ice cold 50 mM Tris pH 7.4, 3 mM MgCl2, 0.2 mM EGTA and dried at 50 degrees Celsius for at least 30 minutes. 40 μl of Microscint-20 (Perkin Elmer) was added per well, and plates were counted using a Top-Count Microplate Scintillation Counter (Perkin Elmer). Binding data were analyzed and EC50 values were calculated using Graph Pad Prism 4.0 Software.

The structures appear in SMILES notation. Counter-ions that a name gives are not always drawn. A value given as a limit tells only on which side of the number the result lay.

T1 sequence (P21554 whole entry): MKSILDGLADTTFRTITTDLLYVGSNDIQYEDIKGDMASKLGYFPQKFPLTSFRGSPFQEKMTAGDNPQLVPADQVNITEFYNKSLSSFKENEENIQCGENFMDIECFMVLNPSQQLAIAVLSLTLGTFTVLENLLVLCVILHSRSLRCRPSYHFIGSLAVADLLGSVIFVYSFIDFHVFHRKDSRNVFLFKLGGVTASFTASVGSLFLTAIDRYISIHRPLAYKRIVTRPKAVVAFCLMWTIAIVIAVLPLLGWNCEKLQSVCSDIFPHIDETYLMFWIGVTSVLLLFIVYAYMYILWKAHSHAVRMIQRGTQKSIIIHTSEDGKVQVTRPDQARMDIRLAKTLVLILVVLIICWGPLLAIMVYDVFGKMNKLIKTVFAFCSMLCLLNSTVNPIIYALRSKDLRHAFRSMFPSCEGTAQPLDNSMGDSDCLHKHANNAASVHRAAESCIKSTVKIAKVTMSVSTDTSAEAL

For the compound `Cc1cccc2c1n(CCS(C)(=O)=O)c(=O)n2C(=O)N[C@H](C(=O)N(C)C)C(C)(C)C`, the melting point stood at 190.7 °C.
Same read-out and setting: the same measure for `CC[C@H](C)[C@H](NC(=O)n1c(=O)n(CCN2CCCCC2)c2ccccc21)C(N)=O` (as salt: hydrochloride): 217.1 °C.
Regarding `CC(C)(C)[C@H](NC(=O)n1c(=O)n(CC2CCOCC2)c2ccccc21)c1nnc(N)o1` [Example 319], the affinity on human CB1 receptor [1], expressed as Ki, was 5.17 nM. Further, the EC50 on human CB1 receptor [2] came out at 96.3 nM.
For `Cc1cc(CNC(=O)n2c(=O)n(CC3CCOCC3)c3ccccc32)c(C(F)(F)F)o1` [Example 320], in that order: 4.2 nM and 98.6 nM.
On the same counts, the results for `CCc1nc(CNC(=O)n2c(=O)n(CC3CCOCC3)c3ccccc32)no1` [Example 327] are 36 nM and over 10000 nM.
On to `CCc1nc(CNC(=O)n2c(=O)n(CC3CCOCC3)c3ccccc32)cs1` [Example 328], for which the Ki at human CB1 receptor [1] is 5.94 nM. Also, at human CB1 receptor [2], the midpoint of the response, the EC50, lay at 167 nM.
For `O=C(NCc1ccoc1)n1c(=O)n(CC2CCOCC2)c2ccccc21` [Example 329], in that order: 28 nM and 606 nM.
For `Cc1nc(C)c(CNC(=O)n2c(=O)n(CC3CCOCC3)c3ccccc32)s1` [Example 337], in that order: 12.1 nM and 6490 nM.
For `Cc1nc(CNC(=O)n2c(=O)n(CC3CCOCC3)c3ccccc32)cs1` [Example 341], in that order: 24.7 nM and 355 nM.
For `CC(C)(C)[C@H](NC(=O)n1c(=O)n(CC2CCOCC2)c2ccccc21)C(=O)NC[C@H](O)CO` [Example 345], the Ki on human CB1 receptor [1] is 52.8 nM. The compound also had an EC50 on human CB1 receptor [2] of 1150 nM.
Take `CC(C)(C)[C@H](NC(=O)n1c(=O)n(CC2CCOCC2)c2cc(F)ccc21)c1nnc(N)o1` [Example 347]: on human CB1 receptor [1], the Ki was 9.5 nM. The concentration giving a half-maximal response (EC50) at human CB1 receptor [2] was 229 nM.
For `CC(C)(C)[C@H](NC(=O)n1c(=O)n(Cc2ccccc2)c2ccccc21)C(N)=O` [Example 348], in that order: 5.64 nM and 60.1 nM.
On the same counts, the results for `Cc1nc(C(F)(F)F)c(CNC(=O)n2c(=O)n(CC3CCOCC3)c3ccccc32)s1` [Example 349] are 19.1 nM and 157 nM.
For `Cc1nc(C(C)NC(=O)n2c(=O)n(CC3CCOCC3)c3ccccc32)cs1` (centres unmarked) [Example 350], in that order: 13.4 nM and 131 nM.
On to `CC(C)(C)[C@H](NC(=O)n1c(=O)n(CC2CCOCC2)c2cc(F)ccc21)C(=O)NCCCO` [Example 355], for which, on human CB1 receptor [1], the Ki is 6.72 nM. Besides, the EC50 on human CB1 receptor [2] stood at 361 nM.
For `CC(C)(C)[C@H](NC(=O)n1c(=O)n(CC2CCOCC2)c2cc(F)ccc21)C(=O)NCCO` [Example 356], in that order: 16.6 nM and 219 nM.
On the same counts, the results for `CC(C)(C)[C@H](NC(=O)n1c(=O)n(Cc2ccccc2F)c2ccccc21)C(N)=O` [Example 357] are 2.4 nM and 123 nM.
For `CC(C)(C)[C@H](NC(=O)n1c(=O)n(Cc2ccccc2)c2ccccc21)c1nnc(N)o1` [Example 359], in that order: 3.06 nM and 79.2 nM.
As to `CC(C)(C)[C@H](NC(=O)n1c(=O)n(Cc2ccccc2)c2ccccc21)C(=O)NCCO` [Example 360], affinity on human CB1 receptor [1] was put at a Ki of 19.3 nM. The EC50 at human CB1 receptor [2] came out at 149 nM.
On the same counts, the results for `CC(C)(C)[C@H](NC(=O)n1c(=O)n(Cc2ccccc2)c2ccccc21)C(=O)NCCCO` [Example 361] are 24.7 nM and 249 nM.
On the same counts, the results for `CC(C)(C)[C@H](NC(=O)n1c(=O)n(Cc2cccc(F)c2)c2ccccc21)C(N)=O` [Example 362] are 3.7 nM and 106 nM.
On the same counts, the results for `CC(C)(C)[C@H](NC(=O)n1c(=O)n(Cc2ccc(F)cc2)c2ccccc21)C(N)=O` [Example 363] are 0.36 nM and 4.74 nM.
Compound `CCCCCn1c(=O)n(C(=O)N[C@H](C(N)=O)C(C)(C)C)c2cccnc21` [Example 365] gave a Ki at human CB1 receptor [1] of 95.1 nM. The compound further returned an EC50 on human CB1 receptor [2] of 1030 nM.
